Assay: Inhibition of Escherichia coli murB-mediated eduction of enolpyruvyl uridine diphosphate N-acetylglucosamine to uridine diphosphate N-acetyl muramic acid

| Structure (SMILES) | pIC50 |
| --- | --- |
| O=C(c1c(O)n(-c2ccc(Cl)cc2)n(-c2ccc(Cl)cc2)c1=O)C1CCCCC1 | 4.62 |
| Cc1ccc(NC(=O)c2c(O)n(-c3ccc(Cl)c(Cl)c3)n(-c3ccc(Cl)c(Cl)c3)c2=O)cc1 | 5.319 |
| O=C(Nc1ccc(Cl)cc1)c1c(O)n(-c2ccc(Cl)cc2)n(-c2ccc(Cl)cc2)c1=O | 4.959 |
| O=C(Nc1ccc(Cl)c(Cl)c1)c1c(O)n(-c2ccc(Cl)c(Cl)c2)n(-c2ccc(Cl)c(Cl)c2)c1=O | 5.319 |
| COc1ccc(CC(=O)c2c(O)n(-c3ccc(Cl)cc3)n(-c3ccc(Cl)cc3)c2=O)cc1 | 4.398 |
| O=C(Nc1ccc(Cl)cc1)c1c(O)n(-c2ccccc2)n(-c2ccccc2)c1=O | 4.268 |
| COc1ccc(NC(=O)c2c(O)n(-c3ccc(Cl)cc3)n(-c3ccc(Cl)cc3)c2=O)cc1 | 5 |
| O=C(c1ccc(C(F)(F)F)cc1)c1c(O)n(-c2ccc(Cl)cc2)n(-c2ccc(Cl)cc2)c1=O | 4.824 |
| CCCCOc1ccc(C(=O)c2c(O)n(-c3ccc(Cl)cc3)n(-c3ccc(Cl)cc3)c2=O)cc1 | 5.347 |
| O=C(Nc1ccc(C(F)(F)F)cc1)c1c(O)n(-c2cccc(Cl)c2)n(-c2cccc(Cl)c2)c1=O | 5.061 |
| CC(C(=O)c1c(O)n(-c2ccc(Cl)cc2)n(-c2ccc(Cl)cc2)c1=O)c1ccc(Br)cc1 (stereo not drawn) | 5.252 |
| O=C(Nc1ccc(Cl)cc1)c1c(O)n(-c2cccc(Cl)c2)n(-c2cccc(Cl)c2)c1=O | 5.066 |
| O=C(Nc1ccc(Cl)c(Cl)c1)c1c(O)n(-c2ccc(Cl)cc2)n(-c2ccc(Cl)cc2)c1=O | 4.886 |
| O=C(Nc1ccc(Br)cc1)c1c(O)n(-c2ccccc2)n(-c2ccccc2)c1=O | 4.377 |
| O=C(c1ccc(OC(F)(F)F)cc1)c1c(O)n(-c2ccc(Cl)cc2)n(-c2ccc(Cl)cc2)c1=O | 5.268 |
| O=C(Nc1ccccc1)c1c(O)n(-c2ccccc2)n(-c2ccccc2)c1=O | 4.268 |

Second part, the compound after the results:

| pIC50 | Structure (SMILES) |
| --- | --- |
| 5.018 | O=C(CCc1ccccc1)c1c(O)n(-c2ccc(Cl)cc2)n(-c2ccc(Cl)cc2)c1=O |
| 5.009 | O=C(c1ccccc1)c1c(O)n(-c2ccc(Cl)cc2)n(-c2ccc(Cl)cc2)c1=O |
| 5.26 | O=C(c1cccc(C(F)(F)F)c1)c1c(O)n(-c2ccc(Cl)cc2)n(-c2ccc(Cl)cc2)c1=O |
| 4.66 | O=C(c1ccc(O)cc1)c1c(O)n(-c2ccc(Cl)cc2)n(-c2ccc(Cl)cc2)c1=O |
| 4.914 | O=C(c1ccccc1Cl)c1c(O)n(-c2ccc(Cl)cc2)n(-c2ccc(Cl)cc2)c1=O |
| 5.229 | O=C(c1cccc(Cl)c1)c1c(O)n(-c2ccc(Cl)cc2)n(-c2ccc(Cl)cc2)c1=O |
| 5.215 | O=C(c1ccc(-c2ccccc2)cc1)c1c(O)n(-c2ccc(Cl)cc2)n(-c2ccc(Cl)cc2)c1=O |
| 4.863 | O=C(c1ccc(Cl)cc1)c1c(O)n(-c2ccc(Cl)cc2)n(-c2ccc(Cl)cc2)c1=O |
| 4.796 | COc1ccc(C(=O)c2c(O)n(-c3ccc(Cl)cc3)n(-c3ccc(Cl)cc3)c2=O)cc1 |
| 4.754 | CCOC(=O)c1cccc(C(=O)c2c(O)n(-c3ccc(Cl)cc3)n(-c3ccc(Cl)cc3)c2=O)c1 |
| 4.882 | N#Cc1ccc(C(=O)c2c(O)n(-c3ccc(Cl)cc3)n(-c3ccc(Cl)cc3)c2=O)cc1 |
| 5.237 | O=C(c1cccs1)c1c(O)n(-c2ccc(Cl)cc2)n(-c2ccc(Cl)cc2)c1=O |

Source: ChEMBL document CHEMBL3044812, “QSAR analysis of Mur B inhibitors with antibacterial properties discussing role of physico-chemical parameters” (Med Chem Res, 2011)
